Reference: patent publication US10253027B2, “Aryl lactam kinase inhibitors” (Bristol-Myers Squibb Company, priority 2013, dated 2019)

The molecules below were run against T1, GST-Xa-hAAK1 (Homo sapiens, UniProt Q2M2I8) (assay: AAK1 Kinase Assay). Conditions: IC50 (nM), ATP 22 μM; 3 hours at room temperature; Caliper LabChip 3000.
T1 construct: made in house
Format: biochemical
Protocol: The assays were performed in U-bottom 384-well plates. […] The reactions were initiated by the combination of bacterially expressed, GST-Xa-hAAK1 with substrates and test compounds. The reactions were incubated at room temperature for 3 hours and terminated by adding 60 μl of 35 mM EDTA buffer to each sample. The reactions were analyzed on the Caliper LabChip 3000 (Caliper, Hopkinton, Mass.) by electrophoretic separation of the fluorescent substrate and phosphorylated product. […] Compounds were dissolved at 10 mM in dimethylsulfoxide (DMSO) and evaluated at eleven concentrations. IC50 values were derived by non-linear regression analysis.

T1 sequence (Q2M2I8 whole entry): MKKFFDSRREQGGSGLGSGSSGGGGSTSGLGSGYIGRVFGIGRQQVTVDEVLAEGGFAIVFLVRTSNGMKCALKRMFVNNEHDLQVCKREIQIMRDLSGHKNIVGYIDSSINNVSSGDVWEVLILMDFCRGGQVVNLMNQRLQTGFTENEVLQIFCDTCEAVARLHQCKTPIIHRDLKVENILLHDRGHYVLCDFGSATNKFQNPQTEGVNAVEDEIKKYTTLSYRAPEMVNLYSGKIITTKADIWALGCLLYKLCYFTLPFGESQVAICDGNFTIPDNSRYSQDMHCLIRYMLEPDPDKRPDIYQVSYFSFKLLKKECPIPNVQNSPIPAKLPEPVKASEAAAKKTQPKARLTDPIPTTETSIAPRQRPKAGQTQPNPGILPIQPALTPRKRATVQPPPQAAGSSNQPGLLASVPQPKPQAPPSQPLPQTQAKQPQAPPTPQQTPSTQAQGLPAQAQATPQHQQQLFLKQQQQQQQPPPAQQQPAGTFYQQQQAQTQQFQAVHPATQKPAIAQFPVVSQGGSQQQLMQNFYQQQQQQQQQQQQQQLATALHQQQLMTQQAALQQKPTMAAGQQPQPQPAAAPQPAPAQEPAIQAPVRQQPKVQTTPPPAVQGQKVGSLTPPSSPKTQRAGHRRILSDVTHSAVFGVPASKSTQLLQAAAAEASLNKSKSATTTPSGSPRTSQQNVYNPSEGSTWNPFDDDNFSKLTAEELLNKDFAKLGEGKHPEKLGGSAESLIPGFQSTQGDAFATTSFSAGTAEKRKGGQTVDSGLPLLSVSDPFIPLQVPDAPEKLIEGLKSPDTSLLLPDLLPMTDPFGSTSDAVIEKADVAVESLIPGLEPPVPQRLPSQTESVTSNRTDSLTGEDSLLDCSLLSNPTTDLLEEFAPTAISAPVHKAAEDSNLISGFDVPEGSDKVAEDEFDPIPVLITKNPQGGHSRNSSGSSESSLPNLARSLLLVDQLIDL

| IC50 | Compound |
| --- | --- |
| 53 nM | COc1cc(NC(=O)[C@H](N)C2CCCC2)ccc1-c1cnco1 [Example 3, (R)-2-Amino-2-cyclopentyl-N-(3-methoxy-4-(oxazol-5-yl)phenyl)acetamide] |
| 104 nM | COc1cc(NC(=O)[C@@H](N)CC(C)C)ccc1-c1cnco1 [Example 5, (S)-2-Amino-N-(3-methoxy-4-(oxazol-5-yl)phenyl)-4-methylpentanamide] |
| 78 nM | COc1cc(NC(=O)[C@H](N)CC2CCC2)ccc1-c1cnco1 [Example 6, (R)-2-Amino-3-cyclobutyl-N-(3-methoxy-4-(oxazol-5-yl)phenyl)propanamide] |
| 64 nM | COc1cc(NC(=O)C(N)CC(C)C)ccc1-c1cnco1 (stereo not shown) [Example 7, 2-Amino-N-(3-methoxy-4-(oxazol-5-yl)phenyl)-4-methylpentanamide] |
| 90 nM | COc1cc(NC(=O)C(N)CCC(C)C)ccc1-c1cnco1 (stereo not shown) [Example 8, 2-Amino-N-(3-methoxy-4-(oxazol-5-yl)phenyl)-5-methylhexanamide] |
| 115 nM | COc1cc(NC(=O)[C@H](N)CC2CC2)ccc1-c1cnco1 [Example 9, (R)-2-Amino-3-cyclopropyl-N-(3-methoxy-4-(oxazol-5-yl)phenyl)propanamide] |
| 5010 nM | CCN(C(=O)[C@H](N)CC(C)C)c1ccc(-c2cnco2)c(OC)c1 [Example 10, (R)-2-Amino-N-ethyl-N-(3-methoxy-4-(oxazol-5-yl)phenyl)-4-methylpentanamide] |
| 1520 nM | CC(C)C[C@@H](N)C(=O)Nc1ccc(-c2cnco2)c(C(F)(F)F)c1 [Example 11, (R)-2-Amino-4-methyl-N-(4-(oxazol-5-yl)-3-(trifluoromethyl)phenyl)pentanamide] |
| 55 nM | CC(C)C[C@@H](N)C(=O)Nc1ccc(-c2cnco2)c(Br)c1 [Example 12, (R)-2-Amino-N-(3-bromo-4-(oxazol-5-yl)phenyl)-4-methylpentanamide] |
| 248 nM | Cc1cc(NC(=O)[C@H](N)CC(C)C)ccc1-c1cnco1 [Example 13, (R)-2-Amino-4-methyl-N-(3-methyl-4-(oxazol-5-yl)phenyl)pentanamide] |
| 97 nM | CCc1cc(NC(=O)[C@H](N)CC(C)C)ccc1-c1cnco1 [Example 14, (R)-2-Amino-N-(3-ethyl-4-(oxazol-5-yl)phenyl)-4-methylpentanamide] |
| 1370 nM | CC(C)C[C@@H](N)C(=O)Nc1ccc(-c2cnco2)c(-c2ccsc2)c1 [Example 15, (R)-2-Amino-4-methyl-N-(4-(oxazol-5-yl)-3-(thiophen-3-yl)phenyl)pentanamide] |
| 100 nM | CC(C)C[C@@H](N)C(=O)Nc1ccc(-c2cnco2)c(O)c1 [Example 16, (R)-2-Amino-N-(3-hydroxy-4-(oxazol-5-yl)phenyl)-4-methylpentanamide] |
| 66 nM | CCOc1cc(NC(=O)[C@H](N)CC(C)C)ccc1-c1cnco1 [Example 17, (R)-2-Amino-N-(3-ethoxy-4-(oxazol-5-yl)phenyl)-4-methylpentanamide] |
| 56 nM | COc1cc(NC(=O)[C@H](N)CC(C)C)ccc1-c1cn[nH]n1 [Example 19, (R)-2-Amino-N-(3-methoxy-4-(2H-1,2,3-triazol-4-yl)phenyl)-4-methylpentanamide] |
| 63 nM | COc1cc(NC(=O)[C@H](N)CC(C)C)ccc1-c1ccncc1 [Example 20, (R)-2-Amino-N-(3-methoxy-4-(pyridin-4-yl)phenyl)-4-methylpentanamide] |
| 275 nM | COc1cc(NC(=O)[C@H](N)CC(C)C)ccc1-c1cncs1 [Example 21, (R)-2-Amino-N-(3-methoxy-4-(thiazol-5-yl)phenyl)-4-methylpentanamide] |
| 140 nM | COc1cc(NC(=O)[C@H](N)CC(C)C)ccc1-c1ccnnc1 [Example 22, (R)-2-Amino-N-(3-methoxy-4-(pyridazin-4-yl)phenyl)-4-methylpentanamide] |
| 5100 nM | COc1cc(NC(=O)[C@H](N)CC(C)C)ccc1-c1nncs1 [Example 23, (R)-2-Amino-N-(3-methoxy-4-(1,3,4-thiadiazol-2-yl)phenyl)-4-methylpentanamide] |
